Measurements as given in US7166642B1, “Use of cyclohexenone long-chain alcohol for treating neurodegenerative diseases” (Meiji Dairies Corporation, priority 1999, dated 2007).
Values belong to the molecule of their own block, whether it stands above or below them.

What was measured:
[1] = tested on: Neurons originating from the cerebral hemisphere of rat fetus; test: Neurite-extension effect; assay type: cell-based; design: key to Neurite-extension effect: 0: No effect; +: Faintly effective; ++: Slightly effective; +++: Effective >160%; ++++: Remarkably effective >200%; conditions: for activity at 0.01 µM: Rattus norvegicus, Neuron, 72 h; for activity at 0.01 µM / Neurite-extension effect: 1×10^−8 M, cultured for three days, phase-contrast microscope; for neurite-extension effect as compared with bFGF (in words): summary of Table 1
Protocol: Neurons originating from the cerebral hemisphere of rat fetus (13–15 days) were used. The neurons were cultured according to a method described by Borg, J. et al. (Borg, J. et al.: Dev. Brain Res., 18: 37, 1985). Neurons in an amount of 1.5×10^5 were dispersed on a polylysine-coated dish (35 mm), and DMEM (supplemented with insulin, transferrin, progesterone, sodium selenate, and putrescine) was added thereto in an amount of 3 ml. Compound (1) of the present invention was dissolved in ethanol, and then the solution was added thereto such that the concentration became 1×10^−8 M. The neurons had been cultured for three days without the culture medium being changed. Thereafter, the neurons were fixed by use of PBS containing 2% glutaraldehyde and observed under a phase-contrast microscope.

[2] = tested on: transgenic mice expressing an SOD-1 mutant gene (G86R); test: Survival test for transgenic mice expressing an SOD-1 mutant gene; assay type: in vivo, mouse
Protocol: Ten transgenic mice were subjected to the survival test. The transgenic mice employed were those in which Gly-86 in the fourth exon of a mouse SOD-1 gene is mutated to Arg (G86R) (Ripps M. E., et al.: Proc. Natl. Acad. Sci. USA. 92: 689–693, 1995). The compound of Preparation Example 10 [3-(14-hydroxytetradecyl)-4-methyl-2-cyclohexen-1-one] was dissolved in ethanol/Tween 80/physiological saline (5/2.85/92.15). The solution was intraperitoneally (i.p.) administered to five specimens at an effective dose of 2 mg/kg for 40 continuous days, and physiological saline alone was similarly administered to the other five specimens. One mouse died due to injection complication before elapse of 90 days. The other four mice died at day 150. All control animals died at about day 90. The life was prolonged by 50% or more, which has high significance.
(1) Transgenic mice expressing an SOD-1 mutant gene were subjected to the survival test in the same manner as Test Example 1 except that 8 mg/kg of compound of Preparation Example 10 was intraperitoneally administered three times a week until the mice died. […] The life was prolonged by 30% or more.
(3) Moreover, in the survival test of transgenic mice (1), onset day (i.e., the day from which mouse becomes impossible to move) was compared between the mouse to which was administered compound of Preparation Example 10 and the control mouse. As a result, for the mouse to which was administered compound of Preparation Example 10, when compared to the control mouse, a prolonged time to the onset day by […] was observed, onset day being prolonged by 20%.

[3] = tested on: transgenic mice expressing an SOD-1 mutant gene; test: Bar test for confirming the motor function in transgenic mice expressing the mutant SOD-1 gene; assay type: in vivo, mouse; conditions: 8 mg/kg i.p. three times a week; measured from 80 to 91 days after birth; metallic bar 10 mm diameter, 45 cm length
Protocol: (2) Meanwhile, during the survival test (1) of the transgenic mice, bar test for confirming the motor function was conducted. In this test, the mouse to which was administered compound of Preparation 10 and control mouse were compared in the time (seconds) required for their passing over a metallic bar having the size of 10 mm in diameter and 45 cm in length. The measurement was carried out from 80 days to 91 days after birth. […] However, when compared the difference between the time at the initial date and the time at the final date, of the mouse to which was administered compound of Preparation Example 10 and of the control mouse, the ratio of the difference of the mouse to which was administered compound of Preparation Example 10 to the difference of the control mouse was about 40%.

- melting point: 34 to 35 °C
Molecule: CCCCCCCCCCC(O)C1=CC(=O)CCC1 (stereo not drawn) [Preparation Example 2, 3-(1-hydroxy-undecyl)-2-cyclohexen-1-one]

- melting point: 35 to 36 °C
Molecule: O=C1C=C(CCCCCCCCCCCCO)CCC1 [Preparation Example 3, 3-(12-hydroxy-dodecyl)-2-cyclohexen-1-one]

- melting point: 42 to 43 °C
Molecule: CCCCCCCCCCCC(O)CC1=CC(=O)CCC1 (stereo not drawn) [Preparation Example 4, 3-(β-hydroxy-tridecyl)-2-cyclohexen-1-one]

- melting point: 44 to 45 °C
Molecule: O=C1C=C(CCCCCCCCCCCCCCO)CCC1 [Preparation Example 5, 3-(14-hydroxy-tetradecyl)-2-cyclohexen-1-one]

Molecule: CC1CCC(=O)C=C1CCCCCCCCCCCCO (stereo not drawn) [Preparation Example 8, 3-(12-hydroxydodecyl)-4-methyl-2-cyclohexen-1-one]
- activity at 0.01 µM [1]: > 160%

Molecule: CCCCCCCCCCCC(O)CC1=CC(=O)CCC1C (stereo not drawn) [Preparation Example 9, 3-(β-hydroxytridecyl)-4-methyl-2-cyclohexen-1-one]
- activity at 0.01 µM [1]: > 200%
- neurite-extension effect as compared with bFGF (in words) [1]: remarkably excellent

Molecule: CC1CCC(=O)C=C1CCCCCCCCCCCCCCO (stereo not drawn) [Preparation Example 10, 3-(14-hydroxytetradecyl)-4-methyl-2-cyclohexen-1-one]
- prolongation of life ([2]; Test Example 1: 2 mg/kg i.p. for 40 continuous days, versus saline control): ≥ 50%
- day at which treated mice died ([2]; Test Example 1: 2 mg/kg i.p. for 40 continuous days, four of five mice (one died of injection complication before day 90), controls died at about day 90): 150 days
- activity of mice during the test ([2]; Test Example 1, control mice were morbid and could not act appropriately): very active
- survival of two of the treated mice ([2]; Test Example 2: 8 mg/kg i.p. three times a week until death): more than 200 days
- day at which treated mice died, on average ([2]; Test Example 2: 8 mg/kg i.p. three times a week until death, controls died at around day 110): ~150 days
- prolongation of onset day ([2]; Test Example 2: 8 mg/kg i.p. three times a week, compared to control): 20%
- prolongation of life ([2]; Test Example 2: 8 mg/kg i.p. three times a week, versus control): ≥ 30%
- activity at 0.01 µM [1]: > 200%
- neurite-extension effect as compared with bFGF (in words) [1]: remarkably excellent
- ratio of the difference (time at initial date vs final date for passing the bar) of treated mouse to that of control mouse [3]: about 40%

Molecule: CC1(C)CCC(=O)C=C1CCCCCCCCCCCO [Preparation Example 12, 3-(11-hydroxyundecyl)-4,4-dimethyl-2-cyclohexen-1-one]
- Neurite-extension effect [1]: ++

Molecule: CC1(C)CCC(=O)C=C1CCCCCCCCCCCCO [Preparation Example 13, 3-(12-hydroxydodecyl)-4,4-dimethyl-2-cyclohexen-1-one]
- activity at 0.01 µM [1]: > 160%

Molecule: CCCCCCCCCCCC(O)CC1=CC(=O)CCC1(C)C (stereo not drawn) [Preparation Example 14, 3-(β-hydroxytridecyl)-4,4-dimethyl-2-cyclohexen-1-one]
- activity at 0.01 µM [1]: > 160%

Molecule: CC1(C)CCC(=O)C=C1CCCCCCCCCCCCCCO [Preparation Example 15, 3-(14-hydroxytetradecyl)-4,4-dimethyl-2-cyclohexen-1-one]
- activity at 0.01 µM [1]: > 160%

Molecule: CC1=C(CCCCCCCCCCCCO)CCCC1=O [Preparation Example 18, 3-(12-hydroxydodecyl)-2-methyl-2-cyclohexen-1-one]
- Neurite-extension effect [1]: ++

Molecule: CC1=C(CCCCCCCCCCCCCCO)CCCC1=O [Preparation Example 20, 3-(14-hydroxytetradecyl)-2-methyl-2-cyclohexen-1-one]
- activity at 0.01 µM [1]: > 200%
- neurite-extension effect as compared with bFGF (in words) [1]: remarkably excellent

Molecule: CC1=C(CCCCCCCCCCC(C)O)C(C)(C)CCC1=O (stereo not drawn) [Preparation Example 22, 3-(11-hydroxydodecyl)-2,4,4-trimethyl-2-cyclohexen-1-one]
- Neurite-extension effect [1]: ++

Molecule: CC1=C(CCCCCCCCCCCCCCO)C(C)(C)CCC1=O [Preparation Example 23, 3-(14-hydroxytetradecyl)-2,4,4-trimethyl-2-cyclohexen-1-one]
- activity at 0.01 µM [1]: > 160%
- neurite-extension effect as compared with bFGF (in words) [1]: remarkably excellent

Molecule: CC1=C(CCCCCCCCCCCCCCCO)C(C)(C)CCC1=O [Preparation Example 24, 3-(15-hydroxypentadecyl)-2,4,4-trimethyl-2-cyclohexen-1-one]
- activity at 0.01 µM [1]: > 200%
- neurite-extension effect as compared with bFGF (in words) [1]: remarkably excellent

Molecule: BFGF: bFGF, comparison substance in the neurite-extension test of Table 1 [reference compound]
- Neurite-extension effect [1]: ++
